The record followed here is patent US20250100993A1, “2-SUBSTITUTED THIAZOLE HSD17B13 INHIBITORS AND USES THEREOF” (Inipharm, Inc., priority 2022, published 2025).

Sequence of HSD17B13 (Q7Z5P4 20-300): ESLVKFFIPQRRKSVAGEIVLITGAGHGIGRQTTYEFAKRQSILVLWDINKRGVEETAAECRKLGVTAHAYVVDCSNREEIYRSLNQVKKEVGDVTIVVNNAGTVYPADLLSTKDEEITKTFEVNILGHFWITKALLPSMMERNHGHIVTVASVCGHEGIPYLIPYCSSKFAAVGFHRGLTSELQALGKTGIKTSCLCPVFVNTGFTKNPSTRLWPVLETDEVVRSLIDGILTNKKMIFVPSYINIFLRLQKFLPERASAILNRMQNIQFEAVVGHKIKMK

The assay has as its target HSD17B13 (Homo sapiens (Human), UniProt Q7Z5P4). Description: LC/MS estrone detection assay for HSD17B13 activity (estradiol to estrone). It is filed as biochemical. Conditions: estradiol substrate, LC-MS/MS estrone detection. The method, then:
The liquid chromatography/mass spectrometry (LC/MS) estrone detection assay monitors the conversion of estradiol to estrone by HSD17B13. This assay was undertaken in a 96 wp format (Eppendorf deep well Plate 96/500) in an 80 μl reaction volume containing: 4 μM of Estradiol (E2; Cayman; Ser. No. 10/006,315), 6 mM NAD+(Sigma; #N0623) and 30 nM HSD17B13 enzyme (in-house; E. coli expressed His-tagged, purified, soluble protein) in a reaction containing 1M potassium phosphate buffer pH 7.4, with 0.5% vehicle (DMSO). Reactions were incubated for 2 hours at 26.5° C., and estradiol (E2) conversion to estrone (E1) was quantitated by LC-MS/MS based analyte detection for both E2 and E1 using LCMS grade reagents.
Reactions were terminated by the addition of two volumes of acetonitrile (MeCN; LCMS grade; CAS #75/05/8) containing deuterated (D4)-E1 used as internal standard (Clear Synth; #CS-T-54273; 500 ng/mL final concentration). Samples were applied to pre-prepared Bond Elut-C18 extraction cartridges (3 mL; Agilent; Ser. No. 12/102,028), washed and eluted in MeCN. Eluates were dried under nitrogen and re-suspended in 60% methanol (LCMS grade methanol; CAS #67/56/1) before submission for analysis. Aqueous linearity for E2 and E1 were included for quantification.
Analysis of samples was undertaken on a XBridge BEH C18 column (Waters; #186003033) using 0.1% Diethyl Amine in MeCN (mobile phase A; DEA CAS #109-89-7) and 0.1% Diethyl Amine in milli-Q water (mobile phase B) in a 3 min gradient allowing 25% B. Analytes were detected in negative mode using MRM analysis, with E2 having a RT of 1.85 min and E1 having a RT of 2 min. Activity of the enzyme, in the absence of NAD+, was used to evaluate specificity of conversion. Enzyme activity in the presence of test samples was expressed as a percentage of the uninhibited enzyme activity, and plotted versus inhibitor concentration. Non-linear regression was performed using a four-parameter logistic model and GraphPad Prism software (GraphPad Software, La Jolla, CA). All assessments were undertaken in duplicate evaluations and pooled during extraction process and subsequently injected as duplicates for LC-MS/MS analysis.
On to `O=C(Nc1n[nH]cc1C(=O)NCc1ccccc1C(F)(F)F)c1cc(Cl)c(O)c(Cl)n1` [Example 1, 4,6-dichloro-5-hydroxy-N-(4-((2-(trifluoromethyl)benzyl)carbamoyl)-1H-pyrazol-3-yl)picolinamide], for which the IC50 (as a rule, the concentration at which inhibition is half-maximal) was at most 100 nM.
`Cn1cc(C(=O)NCc2ccccc2C(F)(F)F)c(NC(=O)c2cc(Cl)c(O)c(Cl)n2)n1` [Example 2, 4,6-dichloro-5-hydroxy-N-(1-methyl-4-((2-(trifluoromethyl)benzyl)carbamoyl)-1H-pyrazol-3-yl)picolinamide] returned an IC50 of 100 to 500 nM.
For `O=C(Nc1n[nH]cc1C(=O)NCc1ccccc1C(F)(F)F)c1cc(Cl)c(O)c(Cl)c1` [Example 3, 3-(3,5-dichloro-4-hydroxybenzamido)-N-(2-(trifluoromethyl)benzyl)-1H-pyrazole-4-carboxamide], the IC50 was at most 100 nM.
Under `Cn1cc(NC(=O)c2cc(Cl)c(O)c(Cl)n2)c(C(=O)NCc2ccccc2OC(F)(F)F)n1` [Example 4, 4,6-dichloro-5-hydroxy-N-(1-methyl-3-((2-(trifluoromethoxy)benzyl)carbamoyl)-1H-pyrazol-4-yl)picolinamide] stands 100 to 500 nM; under `Cn1ncc(NC(=O)c2cc(Cl)c(O)c(Cl)n2)c1C(=O)NCc1ccccc1OC(F)(F)F` [Example 5, 4,6-dichloro-5-hydroxy-N-(1-methyl-5-((2-(trifluoromethoxy)benzyl)carbamoyl)-1H-pyrazol-4-yl)picolinamide], 100 to 500 nM; under `Cn1cc(C(=O)NCc2ccccc2C(F)(F)F)c(NC(=O)c2cc(Cl)c(O)c(Cl)c2)n1` [Example 6, 3-(3,5-dichloro-4-hydroxybenzamido)-1-methyl-N-(2-(trifluoromethyl)benzyl)-1H-pyrazole-4-carboxamide], 100 to 500 nM.
In turn, `Cn1ncc(C(=O)NCc2ccccc2C(F)(F)F)c1NC(=O)c1cc(Cl)c(O)c(Cl)c1` [Example 7, 5-(3,5-dichloro-4-hydroxybenzamido)-1-methyl-N-(2-(trifluoromethyl)benzyl)-1H-pyrazole-4-carboxamide] yielded an IC50 of 1000 to 10000 nM.
With `O=C(Nc1nn(-c2ccccc2)cc1C(=O)NCc1ccccc1C(F)(F)F)c1cc(Cl)c(O)c(Cl)n1` [Example 8, 4,6-dichloro-5-hydroxy-N-(1-phenyl-4-((2-(trifluoromethyl)benzyl)carbamoyl)-1H-pyrazol-3-yl)picolinamide] the figure was 100 to 500 nM; with `O=C(Nc1nn(-c2ccccc2)cc1C(=O)NCc1ccccc1C(F)(F)F)c1cc(Cl)c(O)c(Cl)c1` [Example 9, 3-(3,5-dichloro-4-hydroxybenzamido)-1-phenyl-N-(2-(trifluoromethyl)benzyl)-1H-pyrazole-4-carboxamide], at most 100 nM; with `Cn1ncc(C(=O)NCc2ccccc2C(F)(F)F)c1NC(=O)c1cc(Cl)c(O)c(Cl)n1` [Example 10, 4,6-dichloro-5-hydroxy-N-(1-methyl-4-((2-(trifluoromethyl)benzyl)carbamoyl)-1H-pyrazol-5-yl)picolinamide], 1000 to 10000 nM.
Compound `Cc1ccc(NC(=O)c2cc(Cl)c(O)c(Cl)c2)c2c(=O)n(Cc3ccccc3C(F)(F)F)nnc12` [Example 11, 3,5-dichloro-4-hydroxy-N-(8-methyl-4-oxo-3-(2-(trifluoromethyl)benzyl)-3,4-dihydrobenzo[d][1,2,3]triazin-5-yl)benzamide] displayed an IC50 of at most 100 nM.
The compound `Cc1ccc(NC(=O)c2cc(Cl)c(O)c(Cl)n2)c2c(=O)n(Cc3ccccc3C(F)(F)F)nnc12` [Example 12, 4,6-dichloro-5-hydroxy-N-(8-methyl-4-oxo-3-(2-(trifluoromethyl)benzyl)-3,4-dihydrobenzo[d][1,2,3]triazin-5-yl)picolinamide] returned an IC50 of 100 to 500 nM.
Under `O=C(Nc1ccc(F)c2nnn(Cc3ccccc3C(F)(F)F)c(=O)c12)c1cc(Cl)c(O)c(Cl)n1` [Example 13, 4,6-dichloro-N-(8-fluoro-4-oxo-3-(2-(trifluoromethyl)benzyl)-3,4-dihydrobenzo[d][1,2,3]triazin-5-yl)-5-hydroxypicolinamide] stands 100 to 500 nM.
Under `O=C(Nc1ccc(F)c2nnn(Cc3ccccc3C(F)(F)F)c(=O)c12)c1cc(Cl)c(O)c(Cl)c1` [Example 14, 3,5-dichloro-N-(8-fluoro-4-oxo-3-(2-(trifluoromethyl)benzyl)-3,4-dihydrobenzo[d][1,2,3]triazin-5-yl)-4-hydroxybenzamide] stands at most 100 nM.
Regarding `Cc1nc2c(F)ccc(NC(=O)c3cc(Cl)c(O)c(Cl)n3)c2c(=O)n1[C@H]1CC[C@@H]1c1ccccc1` [Example 15, 4,6-dichloro-N-(8-fluoro-2-methyl-4-oxo-3-((1S,2R)-2-phenylcyclobutyl)-3,4-dihydroquinazolin-5-yl)-5-hydroxypicolinamide], the IC50 was 100 to 500 nM.
Consider `Cc1nc2c(F)ccc(NC(=O)c3cc(Cl)c(O)c(Cl)c3)c2c(=O)n1[C@H]1CC[C@@H]1c1ccccc1` [Example 16, 3,5-dichloro-N-(8-fluoro-2-methyl-4-oxo-3-((1S,2R)-2-phenylcyclobutyl)-3,4-dihydroquinazolin-5-yl)-4-hydroxybenzamide], for which the IC50 was at most 100 nM.
Under `Cc1ccc(NC(=O)c2cc(Cl)c(O)c(Cl)c2)c2c(=O)n(C3CCC3c3ccccc3C(F)(F)F)c(C)nc12` (centres unmarked) [Example 17, 3,5-dichloro-N-(2,8-dimethyl-4-oxo-3-(2-(2-(trifluoromethyl)phenyl)cyclobutyl)-3,4-dihydroquinazolin-5-yl)-4-hydroxybenzamide] stands 100 to 500 nM.
Consider `CCn1c(=O)n(Cc2ccccc2C(F)(F)F)c(=O)c2c(NC(=O)c3cc(Cl)c(O)c(Cl)n3)cccc21` [Example 18, 4,6-dichloro-N-(1-ethyl-2,4-dioxo-3-(2-(trifluoromethyl)benzyl)-1,2,3,4-tetrahydroquinazolin-5-yl)-5-hydroxypicolinamide], for which the IC50 lay within 100 to 500 nM.
Consider `Cn1c(=O)n(Cc2ccccc2C(F)(F)F)c(=O)c2c(NC(=O)c3cc(Cl)c(O)c(Cl)n3)ccc(F)c21` [Example 19, 4,6-dichloro-N-(8-fluoro-1-methyl-2,4-dioxo-3-(2-(trifluoromethyl)benzyl)-1,2,3,4-tetrahydroquinazolin-5-yl)-5-hydroxypicolinamide], for which the IC50 fell in the range of 100 to 500 nM.
In the case of `Cn1c(=O)n(Cc2ccccc2C(F)(F)F)c(=O)c2c(NC(=O)c3cc(Cl)c(O)c(Cl)n3)cccc21` [Example 20, 4,6-dichloro-5-hydroxy-N-(1-methyl-2,4-dioxo-3-(2-(trifluoromethyl)benzyl)-1,2,3,4-tetrahydroquinazolin-5-yl)picolinamide], the IC50 lay in the range of 100 to 500 nM.
With `Cc1nc(C(=O)NCc2ccccc2OC(F)(F)F)c(NC(=O)c2cc(Cl)c(O)c(Cl)c2)s1` [Example 21, 5-(3,5-dichloro-4-hydroxybenzamido)-2-methyl-N-(2-(trifluoromethoxy)benzyl)thiazole-4-carboxamide] the figure was 100 to 500 nM; with `Cc1nc(C(=O)NCc2ccccc2OC(F)(F)F)c(NC(=O)c2cc(Cl)c(O)c(Cl)n2)s1` [Example 22, 5-(4,6-dichloro-5-hydroxypicolinamido)-2-methyl-N-(2-(trifluoromethoxy)benzyl)thiazole-4-carboxamide], 100 to 500 nM; with `O=C(Nc1sc(-c2ccccc2)nc1C(=O)NCc1ccccc1C(F)(F)F)c1cc(Cl)c(O)c(Cl)n1` [Example 23, 5-(4,6-dichloro-5-hydroxypicolinamido)-2-phenyl-N-(2 (trifluoromethyl)benzyl)thiazole-4-carboxamide], at most 100 nM.
